Test results reported in patent US20100144819A1, “Synergistic Methods for Control of Pests” (FMC A[…]. LTD., priority 2008, published 2010).

Tests used:
[1] = system: German cockroach (Blatella germanica); experiment: German cockroach mortality on treated filter paper; type: in vivo, Blattella germanica; settings: 24 h
Excerpt: (§1) The presence of a synergistic effect between the two active ingredients is established with the aid of the Colby equation (see Colby, S. R., “Calculating Synergistic and Antagonistic Responses of Herbicide Combinations”, Weeds 1967, 15, pg 20-22): E=X+Y−(XY/100).
(§2) Using the method of Colby, the presence of asynergistic interaction between two active ingredients is established by first calculating the expected activity, ‘E’, of the mixture based on activities of the two components applied alone. If ‘E’ is lower than the observed activity, synergy is present. In the equation above, ‘X’ is the percentage control observed when bifenthrin applied alone at rate ‘x’. The ‘Y’ term is percentage control observed when fipronil applied alone at rate ‘y’. The equation calculates ‘E’, the expected activity of the mixture of ‘X’ at rate ‘x’ with ‘Y’ at rate ‘y’ if their effects are strictly additive and no interaction has occurred.
The compositions of the present invention were tested for German cockroach (Blatella germanica) activity in the following manner.
Test solutions were made by dissolving technical grade bifenthrin and fipronil in acetone to provide appropriate rates of application of bifenthrin and fipronil alone, as well as combinations of bifenthrin and fipronil. The active ingredient concentrations tested were from 50 parts per million (0.05 mg of active ingredient/mL or 0.05 g/L) to 500 parts per million (0.5 mg of active ingredient/mL or 0.5 g/L), four replicates per rate. In a fume cabinet, one milliliter of a test solution was applied to a 9 cm Whatman® 2 qualitative filter paper using a calibrated pipette. The application started at the center of the filter paper with individual drops being applied in an outward circular motion so that the entire filter paper was uniformly treated. Acetone only (one mL) was applied in the same manner to provide an untreated control (UTC). The treated filter papers were allowed to dry for two hours. The dried, treated or untreated filter paper was placed into a plastic Petri dish and ten late instar, healthy and active German cockroaches (Blattella germanica) were momentarily immobilized using carbon dioxide and then placed onto the filter paper. The lid of each Petri dish was put on to contain the cockroaches. The Petri dishes were maintained at a temperature of 25° C. to 30° C. at ambient relative humidity out of direct sunlight. German cockroach mortality was assessed after 24 hours by counting the number of alive and the number of knocked down/dead cockroaches.
(§3) In order to compare the pesticidal effectiveness of the individual and combination treatments the LC 50 and LC 90 values (lethal concentration in ppm that would effectively knock down/kill 50% or 90% of the test pests) were calculated. In calculating the LC values for the various mixtures of bifenthrin and fipronil, probit analysis was conducted on the fipronil concentration of the mixture. […] The values calculated from the data of Table 1 are in Table 1A below.

[2] = system: American cockroach (Periplaneta americana); experiment: American cockroach mortality on treated filter paper; type: in vivo; settings: 24 h
Excerpt: as §1, §2
The compositions of the present invention were tested for American cockroach (Periplaneta americana) activity in the following manner:
Test solutions were made by dissolving technical grade bifenthrin and fipronil in acetone to provide appropriate rates of application of bifenthrin and fipronil alone, as well as combinations of bifenthrin and fipronil. The active ingredient concentrations tested were from 10 part per million (0.01 mg of active ingredient/mL or 0.01 g/L) to 1000 parts per million (1.0 mg of active ingredient/mL or 1.0 g/L), four replicates per rate. In a fume cabinet, one milliliter of a test solution was applied to a 9 cm Whatman® 2 qualitative filter paper using a calibrated pipette. The application started at the center of the filter paper with individual drops being applied in an outward circular motion so that the entire filter paper was uniformly treated. Acetone only (one mL) was applied in the same manner to provide an untreated control (UTC). The treated filter papers were allowed to dry for two hours. The dried, treated or untreated filter paper was placed into a plastic cup having a base diameter of 90 mm, in which the upper portion of the walls of the plastic cup were coated with a fluoropolymer resin (PFTE-30) insect barrier (Fluoron® available from BioQuip Products Inc.) to prevent the insects from climbing out of the container. Ten late instar, healthy and active American cockroaches (Periplaneta americana) were momentarily immobilized using carbon dioxide and then placed onto the filter paper. The top of the plastic containers were covered with gauze to contain the cockroaches. The plastic containers were maintained at a temperature of 25° C. to 30° C. at ambient relative humidity out of direct sunlight. American cockroach mortality was assessed after 24 hours by counting the number of alive and the number of knocked down/dead cockroaches.
as §3, with “the bifenthrin in” for “the fipronil”, “Table 2” for “Table 1”, “Table 2A” for “Table 1A”

[3] = system: black house spider (Badumna insignis); experiment: Black house spider mortality on treated pine plywood; type: in vivo; settings: suspension concentrate diluted in water, 24 h
Excerpt: as §1, §2
The compositions of the present invention were tested for black house spider (Badumna insignis) activity in the following manner:
Formulations of the test compounds were made as follows: • 1).
The testing was conducted on pine plywood surfaces that had dimensions of 20 cm×20 cm. The above formulations were diluted in water to achieve the desired concentration rate in grams of active ingredient per liter prior to application to the pine plywood. Each treatment was applied using an airbrush sprayer and compressed air as the propellant. The equipment was calibrated prior to use and the treatments were applied to the pine plywood surfaces at a rate of 1 L/10 m^2 (4 mL of final test solution per 20 cm×20 cm pine plywood surface)'. For example, in order to obtain a application rate of […] of active ingredient per 10 m^2, 1.25 mL of the fipronil formulation 1) which contained 100 gram per liter suspension concentrate formulation of fipronil, was diluted in 1 liter of water to make a final test solution. Four mL of the final test solution was sprayed onto the pine plywood surface. The treated pine plywood was allowed to air dry at ambient temperature by storing horizontally away from direct sunlight. Three black house spiders, medium to large in size collected from the field 1 to 2 days prior to testing, were placed separately under untreated portion cups (7 cm diameter by 7 cm deep) on the treated pine plywood surfaces. The untreated portion cups provided an opportunity for the spiders to seek an untreated area. The spiders were assessed after 24 hours exposure by counting the number of alive and the number of knocked down/dead spiders. There were three replications of each treatment.

[4] = probit analysis of Table 1 data, mixtures as bifenthrin:fipronil
[5] = probit analysis of Table 2 data, mixtures as bifenthrin:fipronil

For `Cc1c(COC(=O)[C@@H]2[C@H](/C=C(\Cl)C(F)(F)F)C2(C)C)cccc1-c1ccccc1` (racemic) [Bifenthrin, 2-methylbiphenyl-3-ylmethyl (Z)-(1RS)-cis-3-(2-chloro-3,3,3-trifluoroprop-1-enyl)-2,2-dimethylcyclopropanecarboxylate], the “% Observed Control” value ([1]; 100 ppm (0.1 mg/mL)) was 2.5%, the “Mortality Rep 1 dead/alive” value ([1]; 100 ppm (0.1 mg/mL)) was 0/10 and the “Mortality Rep 2 dead/alive” value ([1]; 100 ppm (0.1 mg/mL)) was 0/10. The “Mortality Rep 3 dead/alive” value ([1]; 100 ppm (0.1 mg/mL)) was 0/10, the “Mortality Rep 4 dead/alive” value ([1]; 100 ppm (0.1 mg/mL)) was 1/9 and the “% Observed Control” value ([1]; 250 ppm (0.25 mg/mL)) was 90%. For the same compound, the “Mortality Rep 1 dead/alive” value ([1]; 250 ppm (0.25 mg/mL)) was 9/1, the “Mortality Rep 2 dead/alive” value ([1]; 250 ppm (0.25 mg/mL)) was 9/1 and the “Mortality Rep 3 dead/alive” value ([1]; 250 ppm (0.25 mg/mL)) was 9/1. The “Mortality Rep 4 dead/alive” value ([1]; 250 ppm (0.25 mg/mL)) was 9/1, the “% Observed Control” value ([1]; 500 ppm (0.5 mg/mL)) was 97.5% and the “Mortality Rep 1 dead/alive” value ([1]; 500 ppm (0.5 mg/mL)) was 10/0. The “Mortality Rep 2 dead/alive” value ([1]; 500 ppm (0.5 mg/mL)) was 10/0, the “Mortality Rep 3 dead/alive” value ([1]; 500 ppm (0.5 mg/mL)) was 10/0 and the “Mortality Rep 4 dead/alive” value ([1]; 500 ppm (0.5 mg/mL)) was 9/1. For the same compound, the “LC 50” value [1, 4] was 193 ppm, the “LC 90” value [1, 4] was 301 ppm and the “% Observed Control” value ([2]; 100 ppm (0.1 mg/mL)) was 2.5%. The “Mortality Rep 1 dead/alive” value ([2]; 100 ppm (0.1 mg/mL)) was 1/9, the “Mortality Rep 2 dead/alive” value ([2]; 100 ppm (0.1 mg/mL)) was 0/10 and the “Mortality Rep 3 dead/alive” value ([2]; 100 ppm (0.1 mg/mL)) was 0/10. The “Mortality Rep 4 dead/alive” value ([2]; 100 ppm (0.1 mg/mL)) was 0/10, the “% Observed Control” value ([2]; 125 ppm (0.125 mg/mL)) was 45% and the “Mortality Rep 1 dead/alive” value ([2]; 125 ppm (0.125 mg/mL)) was 1/9. The “Mortality Rep 2 dead/alive” value ([2]; 125 ppm (0.125 mg/mL)) was 10/0, the “Mortality Rep 3 dead/alive” value ([2]; 125 ppm (0.125 mg/mL)) was 7/3 and the “Mortality Rep 4 dead/alive” value ([2]; 125 ppm (0.125 mg/mL)) was 0/10. The “% Observed Control” value ([2]; 200 ppm (0.2 mg/mL)) was 10%, the “Mortality Rep 1 dead/alive” value ([2]; 200 ppm (0.2 mg/mL)) was 0/10 and the “Mortality Rep 2 dead/alive” value ([2]; 200 ppm (0.2 mg/mL)) was 0/10. The “Mortality Rep 3 dead/alive” value ([2]; 200 ppm (0.2 mg/mL)) was 0/10, the “Mortality Rep 4 dead/alive” value ([2]; 200 ppm (0.2 mg/mL)) was 4/6 and the “% Observed Control” value ([2]; 250 ppm (0.25 mg/mL)) was 12.5%. For the same compound, the “Mortality Rep 1 dead/alive” value ([2]; 250 ppm (0.25 mg/mL)) was 1/9, the “Mortality Rep 2 dead/alive” value ([2]; 250 ppm (0.25 mg/mL)) was 1/9 and the “Mortality Rep 3 dead/alive” value ([2]; 250 ppm (0.25 mg/mL)) was 2/8. The “Mortality Rep 4 dead/alive” value ([2]; 250 ppm (0.25 mg/mL)) was 1/9, the “% Observed Control” value ([2]; 400 ppm (0.4 mg/mL)) was 22.5% and the “Mortality Rep 1 dead/alive” value ([2]; 400 ppm (0.4 mg/mL)) was 1/9. The “Mortality Rep 2 dead/alive” value ([2]; 400 ppm (0.4 mg/mL)) was 2/8, the “Mortality Rep 3 dead/alive” value ([2]; 400 ppm (0.4 mg/mL)) was 4/6 and the “Mortality Rep 4 dead/alive” value ([2]; 400 ppm (0.4 mg/mL)) was 2/8. For the same compound, the “% Observed Control” value ([2]; 500 ppm (0.5 mg/mL)) was 25%, the “Mortality Rep 1 dead/alive” value ([2]; 500 ppm (0.5 mg/mL)) was 0/10 and the “Mortality Rep 2 dead/alive” value ([2]; 500 ppm (0.5 mg/mL)) was 5/5. The “Mortality Rep 3 dead/alive” value ([2]; 500 ppm (0.5 mg/mL)) was 2/8, the “Mortality Rep 4 dead/alive” value ([2]; 500 ppm (0.5 mg/mL)) was 3/7 and the “% Observed Control” value ([2]; 1000 ppm (1.0 mg/mL)) was 97.5%. For the same compound, the “Mortality Rep 1 dead/alive” value ([2]; 1000 ppm (1.0 mg/mL)) was 10/0, the “Mortality Rep 2 dead/alive” value ([2]; 1000 ppm (1.0 mg/mL)) was 10/0 and the “Mortality Rep 3 dead/alive” value ([2]; 1000 ppm (1.0 mg/mL)) was 10/0. The “Mortality Rep 4 dead/alive” value ([2]; 1000 ppm (1.0 mg/mL)) was 9/1, the “LC 50” value [2, 5] was 906 ppm and the “LC 90” value [2, 5] was 1618 ppm. The “Observed % Control” value ([3]; 0.25 g ai/L at 1 L/10 m^2) was 88.9% and the “Observed % Control” value ([3]; 0.5 g ai/L at 1 L/10 m^2) was 88.9%.
